Laboratory results from US20090306135A1 (priority 2008, published 2009).
Read-outs that look alike come from different tables or passages of the source.

Experiments:
[1] = Storage stability at 25 ± 2° C. and 60 ± 5% RH; format: physicochemical
[2] = Text: X-Ray tube with Cu target anode Divergence slits 1 0, Receiving slit 0.15 mm, Scatter slit 1 0 Power: 40 KV, 100 mA; Scanning speed: 2 degree/minute step: 0.02 degree; Wave length: 1.5406 A; Spray Dryer: PST01
[3] = 40 ± 2° C. and 75 ± 5% RH, 1 Month
[4] = 40 ± 2° C. and 75 ± 5% RH, 2 Month
[5] = 40 ± 2° C. and 75 ± 5% RH, 3 Month
[6] = 40 ± 2° C. and 75 ± 5% RH, Initial
[7] = 40 ± 2° C. and 75 ± 5% RH (Using BHA), 1 Month
[8] = 40 ± 2° C. and 75 ± 5% RH (Using BHA), 2 Month
[9] = 40 ± 2° C. and 75 ± 5% RH (Using BHA), Initial

CC(C)(C(=O)O)c1ccc(C(O)CCCN2CCC(C(O)(c3ccccc3)c3ccccc3)CC2)cc1.Cl (racemic) [Example 1, (±)-4-[1 hydroxy-4-[4-(hydroxydiphenylmethyl)-1-piperidinyl]-butyl]-α,α-dimethyl benzeneacetic acid hydrochloride]
Assay by HPLC ([1]; 3 Month): 99.4 % w/w on dried basis | Description ([1]; 3 Month): White Powder | Possible impurities Comp-A ([1]; 3 Month): 0.050 | Related Subs ([1]; 3 Month): 0.213 % w/w | XRD ([1]; 3 Month): Complies | Assay by HPLC ([1]; 6 Month): 98.8 % w/w on dried basis | Description ([1]; 6 Month): White Powder | Possible impurities Comp-A ([1]; 6 Month): 0.040 | Related Subs ([1]; 6 Month): 0.186 % w/w | XRD ([1]; 6 Month): Complies | Assay by HPLC ([1]; 9 Month): 100.2 % w/w on dried basis | Description ([1]; 9 Month): White Powder | Possible impurities Comp-A ([1]; 9 Month): 0.039 | Related Subs ([1]; 9 Month): 0.171 % w/w | XRD ([1]; 9 Month): Complies | Assay by HPLC ([1]; Initial): 99.0 % w/w on dried basis | Description ([1]; Initial): White Powder | Possible impurities Comp-A ([1]; Initial): 0.049 | Related Subs ([1]; Initial): 0.188 % w/w | XRD ([1]; Initial): Complies | Assay by HPLC [2, 3]: 99.4 % w/w on dried basis | Description [2, 3]: White Powder | Possible impurities Comp-A [2, 3]: 0.050 | Related Subs [2, 3]: 0.201 % w/w | XRD [2, 3]: Complies | Assay by HPLC [2, 4]: 98.7 % w/w on dried basis | Description [2, 4]: White Powder | Possible impurities Comp-A [2, 4]: 0.047 | Possible impurities ME-pF (Methyl ester of p-fexofenadine) [2, 4]: 0.002 | Possible impurities TRS-1 [2, 4]: 0.008 | Related Subs [2, 4]: 0.237 % w/w | XRD [2, 4]: Complies | Assay by HPLC [2, 5]: 99.3 % w/w on dried basis | Description [2, 5]: White Powder | Possible impurities Comp-A [2, 5]: 0.053 | Related Subs [2, 5]: 0.203 % w/w | XRD [2, 5]: Complies | Assay by HPLC [2, 6]: 99.0 % w/w on dried basis | Description [2, 6]: White Powder | Possible impurities Comp-A [2, 6]: 0.049 | Related Subs [2, 6]: 0.188 % w/w | XRD [2, 6]: Complies

CC(C)(C(=O)O)c1ccc(C(O)CCCN2CCC(C(O)(c3ccccc3)c3ccccc3)CC2)cc1.Cl (racemic) [Example 2, (±)-4-[1 hydroxy-4-[4-(hydroxydiphenylmethyl)-1-piperidinyl]-butyl]-α,α-dimethyl benzeneacetic acid hydrochloride]
Assay by HPLC [2, 7]: 99.6 % w/w on dried basis | Description [2, 7]: White powder | Possible impurities Comp-A [2, 7]: 0.069 | Possible impurities ME-mF (Methyl ester of m-fexofenadine) [2, 7]: 0.023 | Possible impurities TRS-1 [2, 7]: 0.008 | Related Subs [2, 7]: 0.227 % w/w | XRD [2, 7]: Complies | Assay by HPLC [2, 8]: 99.3 % w/w on dried basis | Description [2, 8]: White powder | Possible impurities Comp-A [2, 8]: 0.067 | Possible impurities ME-mF (Methyl ester of m-fexofenadine) [2, 8]: 0.019 | Possible impurities TRS-1 [2, 8]: 0.009 | Related Subs [2, 8]: 0.218 % w/w | XRD [2, 8]: Complies | Assay by HPLC [2, 9]: 99.3 % w/w on dried basis | Description [2, 9]: White powder | Possible impurities Comp-A [2, 9]: 0.071 | Possible impurities ME-mF (Methyl ester of m-fexofenadine) [2, 9]: 0.023 | Related Subs [2, 9]: 0.219 % w/w | XRD [2, 9]: Complies

CC(C)(C(=O)O)c1ccc(C(O)CCCN2CCC(C(O)(c3ccccc3)c3ccccc3)CC2)cc1.Cl (racemic) [amorphous fexofenadine hydrochloride, (±)-4-[1 hydroxy-4-[4-(hydroxydiphenylmethyl)-1-piperidinyl]-butyl]-α,α-dimethyl benzeneacetic acid hydrochloride]
time for which the product is stable ([2]; different storage conditions (Tables 1-3)): ≥ 3 months
